These results are taken from patent publication US20240018123A1, “COMPOUND FOR INHIBITING OR DISINTEGRATING ANDROGEN RECEPTOR, AND PHARMACEUTICAL USE THEREOF” (KOREA RESEARCH INSTITUTE OF CHEMICAL TECHNOLOGY, priority 2020, published 2024).

One data set deals with T1, Androgen receptor (AR) (Homo sapiens, UniProt P10275, T878A).
T1 construct: 5.5×10^5 LNCap cells were injected into each well of a 6-well plate; endogenous in cells; host or cells: LNCaP
T1 sequence (P10275 1-920 T878A): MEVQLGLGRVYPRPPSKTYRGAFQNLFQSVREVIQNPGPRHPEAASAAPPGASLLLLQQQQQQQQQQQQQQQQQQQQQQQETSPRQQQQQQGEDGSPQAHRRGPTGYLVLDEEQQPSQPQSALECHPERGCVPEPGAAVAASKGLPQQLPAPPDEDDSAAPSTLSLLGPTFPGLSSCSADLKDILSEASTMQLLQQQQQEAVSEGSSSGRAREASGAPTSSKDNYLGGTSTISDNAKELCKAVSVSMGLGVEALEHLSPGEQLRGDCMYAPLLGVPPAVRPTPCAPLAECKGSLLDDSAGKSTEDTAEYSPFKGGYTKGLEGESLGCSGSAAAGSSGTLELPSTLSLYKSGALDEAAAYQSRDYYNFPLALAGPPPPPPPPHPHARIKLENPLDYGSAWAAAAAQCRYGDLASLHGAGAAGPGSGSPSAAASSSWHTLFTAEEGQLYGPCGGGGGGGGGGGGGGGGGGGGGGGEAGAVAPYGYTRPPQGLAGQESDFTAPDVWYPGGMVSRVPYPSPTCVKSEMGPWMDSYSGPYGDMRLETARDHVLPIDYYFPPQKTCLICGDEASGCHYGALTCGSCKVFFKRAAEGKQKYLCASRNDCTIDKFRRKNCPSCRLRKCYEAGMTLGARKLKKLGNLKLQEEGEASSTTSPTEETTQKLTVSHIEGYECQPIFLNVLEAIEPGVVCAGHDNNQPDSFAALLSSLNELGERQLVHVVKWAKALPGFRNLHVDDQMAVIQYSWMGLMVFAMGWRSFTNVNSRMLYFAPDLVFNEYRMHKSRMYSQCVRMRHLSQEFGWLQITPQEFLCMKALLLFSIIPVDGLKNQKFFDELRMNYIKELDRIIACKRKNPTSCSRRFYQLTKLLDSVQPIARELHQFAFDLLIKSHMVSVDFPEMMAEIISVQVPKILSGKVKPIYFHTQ
Kind of data set: Assessment of AR proteolytic activity (Western blotting of LNCap cell lysates). The format is cell-based. The conditions noted are these: 24 hours of treatment, Western blotting quantified with Image J. An outline of the steps: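 AR degradation read by Western blot densitometry on RIPA lysates (pH 7.5, protease inhibitor cocktail). Lysates came from LNCap cells, 5.5×10^5 per well, exposed to compound for 24 hours.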

Method for VCaP cells: In order to evaluate the androgen receptor (AR) cytotoxicity of the compounds according to the present invention, the following experiment was conducted. Specifically, 1.5×10^3 (LNCaP) or 4×10^3 (VCaP, 22RV1), respectively, of LNCaP, VCaP, and 22RV1 cells were injected into each well of a 96-well plate. The next day, each well was treated with the compound at a final concentration of 3 nM, 10 nM, 30 nM, 100 nM, 300 nM, 1 μM, 3 μM, and 10 μM. […] After 6 days of treatment, Cell-titer-glo (promega) was treated and reacted for 10 minutes, and cell viability was measured with a multimode plate reader (PerkinElmer, Inc.), and the change was quantified compared to when DMSO was treated.

Consider `CC1(C)[C@H](NC(=O)c2ccc(N3CCN(CC4(O)CCN(C(=O)COc5ccc6nnn(C7CCC(=O)NC7=O)c(=O)c6c5)CC4)CC3)cc2)C(C)(C)[C@H]1Oc1ccc(C#N)c(Cl)c1` (stereo partly shown) [Example 54, N-((1r,3r)-3-(3-chloro-4-cyanophenoxy)-2,2,4,4-tetramethylcyclobutyl)-4-(4-((1-(2-((3-(2,6-dioxopiperidin-3-yl)-4-oxo-3,4-dihydrobenzo[d][1,2,3]triazin-6-yl)oxy)acetyl)-4-hydroxypiperidin-4-yl)methyl)piperazin-1-yl)benzamide], for which the half-maximal cytotoxic concentration (CC50) in the data set with VCaP cells worked out at 553 nM. Moreover, the “Degradation (1 μM treated in LNCaP, % AR remaining)” value on Androgen receptor (AR) worked out at 7.7%.

Regarding `CC1(C)C(NC(=O)c2ccc(N3CC4CC3CN4CC3CCN(c4ccc5nnn(C6CCC(=O)NC6=O)c(=O)c5c4)CC3)cc2)C(C)(C)C1Oc1ccc(C#N)c(Cl)c1` (stereo not shown) [Example 72, N-((1r,3r)-3-(3-chloro-4-cyanophenoxy)-2,2,4,4-tetramethylcyclobutyl)-4-(5-((1-(3-(2,6-dioxopiperidin-3-yl)-4-oxo-3,4-dihydrobenzo[d][1,2,3]triazin-6-yl)piperidin-4-yl)methyl)-2,5-diazabicyclo[2.2.1]heptan-2-yl)benzamide], the CC50 in the data set on VCaP cells came out at 263 nM. Moreover, the “Degradation (1 μM treated in LNCaP, % AR remaining)” value on Androgen receptor (AR) came out at 92%.

`CC1(C)C(NC(=O)c2ccc(N3CCN(C=C4CCN(C(=O)C5CN(c6ccc7nnn(C8CCC(=O)NC8=O)c(=O)c7c6)C5)CC4)CC3)cc2)C(C)(C)C1Oc1ccc(C#N)c(Cl)c1` (stereo not shown) [Example 66, N-((1r,3r)-3-(3-chloro-4-cyanophenoxy)-2,2,4,4-tetramethylcyclobutyl)-4-(4-((1-(1-(3-(2,6-dioxopiperidin-3-yl)-4-oxo-3,4-dihydrobenzo[d][1,2,3]triazin-6-yl)azetidine-3-carbonyl)piperidin-4-ylidene)methyl)piperazin-1-yl)benzamide] came in with a 50% cytotoxic concentration (CC50) with VCaP cells of 18.2 nM. On Androgen receptor (AR), the “Degradation (1 μM treated in LNCaP, % AR remaining)” value is on record as 35%.

On to `CC1(C)C(NC(=O)c2ccc(N3CCN(CCCC4CCN(C(=O)COc5ccc6nnn(C7CCC(=O)NC7=O)c(=O)c6c5)CC4)CC3)cc2)C(C)(C)C1Oc1ccc(C#N)c(Cl)c1` (stereo not shown) [Example 45, N-((1r,3r)-3-(3-chloro-4-cyanophenoxy)-2,2,4,4-tetramethylcyclobutyl)-4-(4-(3-(1-(2-((3-(2,6-dioxopiperidin-3-yl)-4-oxo-3,4-dihydrobenzo[d][1,2,3]triazin-6-yl)oxy)acetyl)piperidin-4-yl)propyl)piperazin-1-yl)benzamide], for which the half-maximal cytotoxic concentration (CC50) in the data set on VCaP cells came out at 46.6 nM. Besides, the “Degradation (1 μM treated in LNCaP, % AR remaining)” value at Androgen receptor (AR) is on record as 21.1%.

In the case of `CC1(C)C(NC(=O)c2ccc(C3CCN(CCOC4CCN(C(=O)C5CN(c6ccc7nnn(C8CCC(=O)NC8=O)c(=O)c7c6)C5)CC4)CC3)cc2)C(C)(C)C1Oc1ccc(C#N)c(Cl)c1` (stereo not shown) [Example 75, N-((1r,3r)-3-(3-chloro-4-cyanophenoxy)-2,2,4,4-tetramethylcyclobutyl)-4-(1-(2-((1-(1-(3-(2,6-dioxopiperidin-3-yl)-4-oxo-3,4-dihydrobenzo[d][1,2,3]triazin-6-yl)azetidine-3-carbonyl)piperidin-4-yl)oxy)ethyl)piperidin-4-yl)benzamide], the CC50 in the data set with VCaP cells was found to be 30.1 nM. Moreover, the “Degradation (1 μM treated in LNCaP, % AR remaining)” value at Androgen receptor (AR) came out at 9%.

As for `CC1(C)C(NC(=O)c2ccc(N3CCN(CCCOC4CCN(C(=O)COc5ccc6nnn(C7CCC(=O)NC7=O)c(=O)c6c5)CC4)CC3)cc2)C(C)(C)C1Oc1ccc(C#N)c(Cl)c1` (stereo not shown) [Example 38, N-((1r,3r)-3-(3-chloro-4-cyanophenoxy)-2,2,4,4-tetramethylcyclobutyl)-4-(4-(3-((1-(2-((3-(2,6-dioxopiperidin-3-yl)-4-oxo-3,4-dihydrobenzo[d][1,2,3]triazin-6-yl)oxy)acetyl)piperidin-4-yl)oxy)propyl)piperazin-1-yl)benzamide], in the data set with VCaP cells, it took 43.2 nM to reach half-maximal cytotoxicity (CC50). In addition, at Androgen receptor (AR), the “Degradation (1 μM treated in LNCaP, % AR remaining)” value is 27.3%.

In turn, `CC1(C)C(NC(=O)c2ccc(N3CCN(CC4CCN(C(=O)CN5CCN(c6ccc7nnn(C8CCC(=O)NC8=O)c(=O)c7c6)CC5)CC4)CC3)cc2)C(C)(C)C1Oc1ccc(C#N)c(Cl)c1` (stereo not shown) [Example 58, N-((1r,3r)-3-(3-chloro-4-cyanophenoxy)-2,2,4,4-tetramethylcyclobutyl)-4-(4-((1-(2-(4-(3-(2,6-dioxopiperidin-3-yl)-4-oxo-3,4-dihydrobenzo[d][1,2,3]triazin-6-yl)piperazin-1-yl)acetyl)piperidin-4-yl)methyl)piperazin-1-yl)benzamide] showed a cytotoxic concentration (CC50) in the data set with VCaP cells of 330 nM. Also, the “Degradation (1 μM treated in LNCaP, % AR remaining)” value at Androgen receptor (AR) amounted to 11.4%.

In turn, `CC1(C)C(NC(=O)c2ccc(N3CCN(C(=O)C4CN(c5ccc6nnn(C7CCC(=O)NC7=O)c(=O)c6c5)C4)CC3)cc2)C(C)(C)C1Oc1ccc(C#N)c(Cl)c1` (stereo not shown) [Example 43, N-((1r,3r)-3-(3-chloro-4-cyanophenoxy)-2,2,4,4-tetramethylcyclobutyl)-4-(4-(1-(3-(2,6-dioxopiperidin-3-yl)-4-oxo-3,4-dihydrobenzo[d][1,2,3]triazin-6-yl)azetidine-3-carbonyl)piperazin-1-yl)benzamide] returned a CC50 with VCaP cells of 37.3 nM. The “Degradation (1 μM treated in LNCaP, % AR remaining)” value at Androgen receptor (AR) is recorded as 33.6%.

In turn, `CC1(C)C(NC(=O)c2ccc(N3CCN(C(=O)CN4CCN(c5ccc6nnn(C7CCC(=O)NC7=O)c(=O)c6c5)CC4)CC3)cc2)C(C)(C)C1Oc1ccc(C#N)c(Cl)c1` (stereo not shown) [Example 57, N-((1r,3r)-3-(3-chloro-4-cyanophenoxy)-2,2,4,4-tetramethylcyclobutyl)-4-(4-(2-(4-(3-(2,6-dioxopiperidin-3-yl)-4-oxo-3,4-dihydrobenzo[d][1,2,3]triazin-6-yl)piperazin-1-yl)acetyl)piperazin-1-yl)benzamide] showed a CC50 in the data set with VCaP cells of 225 nM. In addition, the “Degradation (1 μM treated in LNCaP, % AR remaining)” value on Androgen receptor (AR) was 13.3%.

For the molecule `[C-]#[N+]c1ccc(OC2C(C)(C)C(NC(=O)c3ccc(N4CCN(CCc5cn(-c6ccc7nnn(C8CCC(=O)NC8=O)c(=O)c7c6)nn5)CC4)cc3)C2(C)C)cc1Cl` (stereo not shown) [Example 77, N-((1r,3r)-3-(3-chloro-4-isocyanophenoxy)-2,2,4,4-tetramethylcyclobutyl)-4-(4-(2-(1-(3-(2,6-dioxopiperidin-3-yl)-4-oxo-3,4-dihydrobenzo[d][1,2,3]triazin-6-yl)-1H-1,2,3-triazol-4-yl)ethyl)piperazin-1-yl)benzamide], the CC50 with VCaP cells was determined as 46.6 nM. In addition, at Androgen receptor (AR), the “Degradation (1 μM treated in LNCaP, % AR remaining)” value turned out to be 74%.

In the data set on VCaP cells, `CC1(C)[C@H](NC(=O)c2ccc(N3CCN(CC4CCN(CC5CN(c6ccc7nnn(C8CCC(=O)NC8=O)c(=O)c7c6)C5)CC4)CC3)cc2)C(C)(C)[C@H]1Oc1ccc(C#N)c(Cl)c1` (stereo partly shown) [Example 67, N-((1r,3r)-3-(3-chloro-4-cyanophenoxy)-2,2,4,4-tetramethylcyclobutyl)-4-(4-((1-((1-(3-(2,6-dioxopiperidin-3-yl)-4-oxo-3,4-dihydrobenzo[d][1,2,3]triazin-6-yl)azetidin-3-yl)methyl)piperidin-4-yl)methyl)piperazin-1-yl)benzamide] returned a CC50 of 106 nM. Also, the “Degradation (1 μM treated in LNCaP, % AR remaining)” value at Androgen receptor (AR) came to 88%.
